Reference: US20200291018A1, “TAM KINASE INHIBITORS” (SYROS PHARMACEUTICALS, INC., priority 2017, published 2020)

Key:
AXL = biological target: T1, AXL (Homo sapiens, UniProt P30530); assay: TR-FRET kinase activity assay, AXL; assay type: biochemical; details: ATP at Km, 60 minutes
T1 sequence (P30530 26-894): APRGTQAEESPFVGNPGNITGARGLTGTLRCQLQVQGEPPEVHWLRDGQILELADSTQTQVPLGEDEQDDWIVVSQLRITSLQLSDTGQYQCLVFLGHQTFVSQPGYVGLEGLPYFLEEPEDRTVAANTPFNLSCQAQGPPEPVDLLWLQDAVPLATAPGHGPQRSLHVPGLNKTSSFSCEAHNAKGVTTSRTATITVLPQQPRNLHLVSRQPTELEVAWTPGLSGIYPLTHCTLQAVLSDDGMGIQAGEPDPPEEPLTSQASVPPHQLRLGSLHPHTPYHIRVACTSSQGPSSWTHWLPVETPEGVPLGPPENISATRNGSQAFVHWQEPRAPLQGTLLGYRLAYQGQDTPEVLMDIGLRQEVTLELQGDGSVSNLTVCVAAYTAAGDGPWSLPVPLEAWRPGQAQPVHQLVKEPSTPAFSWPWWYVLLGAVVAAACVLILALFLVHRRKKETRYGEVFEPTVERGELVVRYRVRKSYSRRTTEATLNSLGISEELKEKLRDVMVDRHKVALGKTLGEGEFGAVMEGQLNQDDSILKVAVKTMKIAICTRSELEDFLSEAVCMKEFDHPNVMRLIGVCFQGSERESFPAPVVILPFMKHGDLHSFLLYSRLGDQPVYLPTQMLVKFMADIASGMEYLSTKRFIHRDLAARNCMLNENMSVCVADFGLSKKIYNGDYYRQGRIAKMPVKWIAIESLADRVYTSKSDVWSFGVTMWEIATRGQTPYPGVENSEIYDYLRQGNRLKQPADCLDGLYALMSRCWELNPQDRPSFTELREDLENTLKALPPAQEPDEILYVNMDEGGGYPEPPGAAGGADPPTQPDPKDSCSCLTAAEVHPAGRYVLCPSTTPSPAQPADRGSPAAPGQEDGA
Procedure, shortened: (§1)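 Enzyme, fluorescent-labeled peptide substrate and compound were mixed in 50 mM HEPES pH 7.5, 10 mM MgCl2, 1 mM EGTA, 0.01% Brij 35, 1 mM DTT at RT; ATP at each enzyme's Km started the reaction. After 60 min, EDTA quench and Eu-anti-phosphotyrosine-site antibody (30 min, dark); TR-FRET read, IC50 derived.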

MERTK = biological target: T2, MERTK (Homo sapiens, UniProt Q12866); assay: TR-FRET kinase activity assay, MERTK; assay type: biochemical; details: for IC50: TR-FRET activity assay, ATP at Km, 60 minutes, read-out: Mer IC50; for Mer/Flt3 ratio (FLT3 IC50/Mer IC50): ratio calculated as FLT3 IC50/Mer IC50
T2 sequence (Q12866 21-999): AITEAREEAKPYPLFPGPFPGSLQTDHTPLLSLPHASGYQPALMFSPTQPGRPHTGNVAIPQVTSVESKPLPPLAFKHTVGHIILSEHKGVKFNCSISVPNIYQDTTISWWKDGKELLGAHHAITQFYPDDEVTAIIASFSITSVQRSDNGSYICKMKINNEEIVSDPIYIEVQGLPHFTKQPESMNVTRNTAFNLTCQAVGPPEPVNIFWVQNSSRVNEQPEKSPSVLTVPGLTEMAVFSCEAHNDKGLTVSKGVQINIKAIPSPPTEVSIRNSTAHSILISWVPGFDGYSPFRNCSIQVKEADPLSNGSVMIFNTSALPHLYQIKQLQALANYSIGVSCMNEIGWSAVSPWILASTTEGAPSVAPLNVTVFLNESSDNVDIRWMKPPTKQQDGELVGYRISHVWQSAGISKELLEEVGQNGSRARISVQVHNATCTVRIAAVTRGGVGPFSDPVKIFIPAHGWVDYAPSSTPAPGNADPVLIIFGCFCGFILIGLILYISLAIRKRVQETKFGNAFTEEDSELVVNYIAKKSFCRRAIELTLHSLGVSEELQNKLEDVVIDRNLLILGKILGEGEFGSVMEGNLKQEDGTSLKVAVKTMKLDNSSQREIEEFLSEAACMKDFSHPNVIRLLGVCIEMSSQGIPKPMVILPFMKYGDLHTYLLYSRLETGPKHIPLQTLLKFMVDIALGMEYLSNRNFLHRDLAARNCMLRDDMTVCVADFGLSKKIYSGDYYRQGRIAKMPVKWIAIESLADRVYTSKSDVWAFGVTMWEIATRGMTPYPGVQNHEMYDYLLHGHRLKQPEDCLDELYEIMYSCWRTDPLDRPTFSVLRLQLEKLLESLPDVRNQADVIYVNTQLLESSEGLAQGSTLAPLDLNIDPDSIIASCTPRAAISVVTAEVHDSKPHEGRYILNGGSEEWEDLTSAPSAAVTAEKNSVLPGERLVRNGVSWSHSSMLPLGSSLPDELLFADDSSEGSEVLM
Procedure, shortened: as §1

IC50 (AXL)	IC50 (MERTK)	Mer/Flt3 ratio (FLT3 IC50/Mer IC50) (MERTK)	SMILES
100 to 1000 nM	≤ 100 nM	+++ (a ratio of >100)	COCCN1C(C)(C)CC(Oc2ncc([C@H]3CC[C@H](O)CC3)c3nc(N[C@@H](C)CCO)ncc23)CC1(C)C [Compound 380]
≤ 100 nM	≤ 100 nM	+++ (a ratio of >100)	COCCN1C(C)(C)CC(Oc2ncc([C@H]3CC[C@H](O)CC3)c3nc(N[C@@H](C)CF)ncc23)CC1(C)C [Compound 381]
100 to 1000 nM	≤ 100 nM	+++ (a ratio of >100)	C[C@@H](CF)Nc1ncc2c(OC3CC(C)(C)N(C)C(C)(C)C3)ncc([C@H]3CC[C@H](O)CC3)c2n1 [Compound 382]
100 to 1000 nM	≤ 100 nM	+++ (a ratio of >100)	C[C@@H](CC(F)(F)F)Nc1ncc2c(OC3CCN([C@H]4CCOC4)CC3)ncc([C@H]3CC[C@H](O)CC3)c2n1 [Compound 383]
100 to 1000 nM	≤ 100 nM	+++ (a ratio of >100)	COC[C@H](C)Nc1ncc2c(O[C@H]3CCN(C)C(C)(C)C3)ncc([C@H]3CC[C@H](O)CC3)c2n1 [Compound 384]
100 to 1000 nM	≤ 100 nM	+++ (a ratio of >100)	COC[C@H](C)Nc1ncc2c(O[C@@H]3CCN(C)C(C)(C)C3)ncc([C@H]3CC[C@H](O)CC3)c2n1 [Compound 385]
≤ 100 nM	≤ 100 nM	+++ (a ratio of >100)	C[C@@H](CC(F)(F)F)Nc1ncc2c(OC3CC(C)(C)N(C)C(C)(C)C3)ncc([C@H]3CC[C@H](O)CC3)c2n1 [Compound 386]
100 to 1000 nM	≤ 100 nM	+++ (a ratio of >100)	COC[C@H](C)Nc1ncc2c(OC3C[C@H](C)N(C)[C@@H](C)C3)ncc([C@H]3CC[C@H](O)CC3)c2n1 (stereo partly drawn) [Compound 387]
100 to 1000 nM	≤ 100 nM	+++ (a ratio of >100)	COC[C@H](C)Nc1ncc2c(OC3C[C@@H](C)N(C)[C@H](C)C3)ncc([C@H]3CC[C@H](O)CC3)c2n1 (stereo partly drawn) [Compound 388]
100 to 1000 nM	≤ 100 nM	+++ (a ratio of >100)	C[C@@H](CC(F)(F)F)Nc1ncc2c(OC3CCN(S(C)(=O)=O)CC3)ncc([C@H]3CC[C@H](O)CC3)c2n1 [Compound 389]
100 to 1000 nM	≤ 100 nM	++ (a ratio of between 10 and 100)	COCCN1C(C)(C)CC(Oc2ncc([C@H]3CC[C@H](O)CC3)c3nc(N[C@@H]4CCOC4)ncc23)CC1(C)C [Compound 390]
≤ 100 nM	≤ 100 nM	+++ (a ratio of >100)	CCN1C(C)(C)CC(Oc2ncc([C@H]3CC[C@H](O)CC3)c3nc(N[C@@H](C)CC(F)(F)F)ncc23)CC1(C)C [Compound 391]
≤ 100 nM	≤ 100 nM	+++ (a ratio of >100)	O[C@H]1CC[C@H](c2cnc(OC3CCOCC3)c3cnc(Nc4ccc(-c5nn[nH]n5)cc4)nc32)CC1 [Compound 392]
100 to 1000 nM	≤ 100 nM	+++ (a ratio of >100)	COC[C@H](C)Nc1ncc2c(O[C@H]3C[C@@H](C(=O)N4CCN(C)CC4)C3)ncc([C@H]3CC[C@H](O)CC3)c2n1 [Compound 393]
100 to 1000 nM	≤ 100 nM	+++ (a ratio of >100)	C[C@@H](Nc1ncc2c(OC3CCOCC3)ncc([C@H]3CC[C@H](O)CC3)c2n1)C(F)F [Compound 394]
1000 to 10000 nM	100 to 1000 nM	++ (a ratio of between 10 and 100)	COC[C@H](C)Nc1ncc2c(OC3CCOCC3)ncc(-c3ccc(F)cc3)c2n1 [Compound 395]
1000 to 10000 nM	≤ 100 nM	+++ (a ratio of >100)	COC[C@H](C)Nc1ncc2c(OC3CCOCC3)ncc(-c3ccc(C#N)cc3)c2n1 [Compound 396]
≤ 100 nM	≤ 100 nM	++ (a ratio of between 10 and 100)	O=C(O)c1ccc(Nc2ncc3c(OC4CCOCC4)ncc([C@H]4CC[C@H](O)CC4)c3n2)cc1 [Compound 397]
100 to 1000 nM	≤ 100 nM	+ (a ratio of >2.0 and <10)	CNC(=O)c1ccc(Nc2ncc3c(OC4CCOCC4)ncc([C@H]4CC[C@H](O)CC4)c3n2)cc1 [Compound 398]
≤ 100 nM	≤ 100 nM	NS (a ratio of ≤2.0)	NC(=O)c1ccc(Nc2ncc3c(OC4CCOCC4)ncc([C@H]4CC[C@H](O)CC4)c3n2)cc1 [Compound 399]
1000 to 10000 nM	100 to 1000 nM	++ (a ratio of between 10 and 100)	COC[C@H](C)Nc1ncc2c(OC3CCOCC3)ncc(-c3ccc(S(C)(=O)=O)cc3)c2n1 [Compound 400]
100 to 1000 nM	≤ 100 nM	+++ (a ratio of >100)	C[C@H](CF)Nc1ncc2c(OC3CCOCC3)ncc([C@H]3CC[C@H](O)CC3)c2n1 [Compound 401]
≤ 100 nM	≤ 100 nM	+++ (a ratio of >100)	C[C@@H](CC(F)(F)F)Nc1ncc2c(O[C@H]3C[C@@H](CN4CCOCC4)C3)ncc([C@H]3CC[C@H](O)CC3)c2n1 [Compound 402]
1000 to 10000 nM	100 to 1000 nM	++ (a ratio of between 10 and 100)	COC[C@H](C)Nc1ncc2c(C(F)(F)F)ncc([C@H]3CC[C@H](O)CC3)c2n1 [Compound 403]
100 to 1000 nM	≤ 100 nM	++ (a ratio of between 10 and 100)	CC1(Nc2ncc3c(OC4CCOCC4)ncc(-c4cccc(NS(C)(=O)=O)c4)c3n2)CC1 [Compound 404]
100 to 1000 nM	≤ 100 nM	+++ (a ratio of >100)	CC1(Nc2ncc3c(OC4CCOCC4)ncc(-c4cccc(S(=O)(=O)N5CCC5)c4)c3n2)CC1 [Compound 405]
1000 to 10000 nM	≤ 100 nM	+++ (a ratio of >100)	C[C@H](CC(F)(F)F)Nc1ncc2c(O[C@H]3C[C@@H](O)C3)ncc([C@H]3CC[C@H](O)CC3)c2n1 [Compound 406]
100 to 1000 nM	≤ 100 nM	+++ (a ratio of >100)	C[C@@H](COC(F)F)Nc1ncc2c(O[C@H]3C[C@@H](O)C3)ncc([C@H]3CC[C@H](O)CC3)c2n1 [Compound 407]
100 to 1000 nM	≤ 100 nM	+++ (a ratio of >100)	C[C@@H](CC(F)(F)F)Nc1ncc2c(O[C@H]3C[C@@H](N4CCOCC4)C3)ncc([C@H]3CC[C@H](O)CC3)c2n1 [Compound 408]
1000 to 10000 nM	≤ 100 nM	++ (a ratio of between 10 and 100)	C[C@@H](CC(F)(F)F)Nc1ncc2c(O[C@H]3C[C@@H](O)C3)ncc(-c3ccc(C4(C#N)CC4)cc3)c2n1 [Compound 409]
